From ChEMBL document CHEMBL1126700, “Synthesis and serotonergic activity of 5-(oxadiazolyl)tryptamines: potent agonists for 5-HT1D receptors” (J Med Chem, 1993)

What was measured:
[1] = Partition coefficient (logD7.4); details: octanol/water, pH 7.4
[2] = molecular target: 5-hydroxytryptamine receptor 1D (Sus scrofa, UniProt P79400); experiment: Displacement of radioligand [3H]5-HT binding to 5-hydroxytryptamine 1D receptor in pig caudate membrane; type: cell membranes
[3] = molecular target: T1, Serotonin 3 (5-HT3) receptor (Rattus norvegicus, UniProt P35563+Q9JJ16); experiment: Displacement of [3H]-Q-ICS 205-930 from rat cortex homogenate 5-hydroxytryptamine 3 receptor
T1 sequence (P35563 whole entry): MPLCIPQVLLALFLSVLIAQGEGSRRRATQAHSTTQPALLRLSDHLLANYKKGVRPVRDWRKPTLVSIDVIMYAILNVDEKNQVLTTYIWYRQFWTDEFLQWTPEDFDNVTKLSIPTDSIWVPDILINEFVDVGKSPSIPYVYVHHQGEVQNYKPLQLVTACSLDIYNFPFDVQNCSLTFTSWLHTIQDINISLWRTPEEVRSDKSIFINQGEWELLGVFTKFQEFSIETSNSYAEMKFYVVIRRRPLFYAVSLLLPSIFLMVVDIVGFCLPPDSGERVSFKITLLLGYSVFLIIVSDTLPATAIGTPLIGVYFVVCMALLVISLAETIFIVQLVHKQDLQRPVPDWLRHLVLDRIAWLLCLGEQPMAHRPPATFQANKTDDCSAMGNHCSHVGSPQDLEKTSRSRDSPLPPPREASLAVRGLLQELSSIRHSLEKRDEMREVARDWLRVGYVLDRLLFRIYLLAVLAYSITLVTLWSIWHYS
T1 sequence (Q9JJ16 whole entry): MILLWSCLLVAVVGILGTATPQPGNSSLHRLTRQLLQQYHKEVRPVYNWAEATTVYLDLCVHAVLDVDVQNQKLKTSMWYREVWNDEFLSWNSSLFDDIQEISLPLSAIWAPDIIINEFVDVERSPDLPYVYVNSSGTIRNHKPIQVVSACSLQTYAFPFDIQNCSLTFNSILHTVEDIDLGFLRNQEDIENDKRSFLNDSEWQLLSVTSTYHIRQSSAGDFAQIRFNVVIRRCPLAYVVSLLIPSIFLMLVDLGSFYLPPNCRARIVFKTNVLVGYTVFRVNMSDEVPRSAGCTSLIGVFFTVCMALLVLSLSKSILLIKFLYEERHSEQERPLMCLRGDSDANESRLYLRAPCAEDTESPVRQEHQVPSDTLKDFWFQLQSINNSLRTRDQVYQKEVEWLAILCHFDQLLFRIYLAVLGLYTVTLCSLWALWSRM

[4] = molecular target: Serotonin 2 (5-HT2) receptor (Rattus norvegicus, UniProt P30994+P08909+P14842); experiment: isplacement of [3H]DOB from rat cortex homogenate 5-hydroxytryptamine 2 receptor
Oryctolagus cuniculus [5] = species: Oryctolagus cuniculus; experiment: Relative maximum is the relative efficacy for serotonergic activity on rabbit saphenous vein with respect to 1 uM 5-HT; type: functional
Oryctolagus cuniculus [6] = species: Oryctolagus cuniculus; experiment: Serotonergic activity was assessed in vitro on the New Zealand white rabbit saphenous vein preparation; type: functional
Oryctolagus cuniculus [7] = species: Oryctolagus cuniculus; experiment: Relative maximum is the relative efficacy with respect to 1 uM 5-HT; type: functional

Sequence of 5-hydroxytryptamine receptor 1D (P79400 whole entry): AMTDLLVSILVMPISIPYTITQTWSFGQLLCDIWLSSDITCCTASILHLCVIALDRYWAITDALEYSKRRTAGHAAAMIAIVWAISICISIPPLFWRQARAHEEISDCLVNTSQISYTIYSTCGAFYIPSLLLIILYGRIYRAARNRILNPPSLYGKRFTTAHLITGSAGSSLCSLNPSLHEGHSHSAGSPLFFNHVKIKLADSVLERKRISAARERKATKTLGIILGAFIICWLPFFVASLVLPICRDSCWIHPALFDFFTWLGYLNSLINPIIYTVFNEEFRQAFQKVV

Row | Structure (SMILES) | logD [1] | IC50 [2] [µM] | IC50 [3] [µM] | pIC50 [4] | further results
1 | CNS(=O)(=O)Cc1ccc2[nH]cc(CCN(C)C)c2c1 | -1.17 | – | – | – | –
2 | NCCc1c[nH]c2ccc(C(N)=O)cc12 | – | 0.00398 | – | – | –
3 | CN(C)CCc1c[nH]c2ccc(-c3nc(Cc4ccc(NS(C)(=O)=O)cc4)no3)cc12 | 1.25 | 0.00126 | – | – | –
4 | NCCc1c[nH]c2ccc(-c3nc(Cc4ccccc4)no3)cc12 | 1.32 | 0.00631 | > 10 | 5.9 | –
5 | CNC(=O)c1ccc(-c2noc(-c3ccc4[nH]cc(CCN)c4c3)n2)cc1 | – | 0.000794 | – | – | –
6 | Cc1noc(CCCc2ccc3[nH]cc(CCN)c3c2)n1 | – | 0.00501 | – | – | –
7 | CCc1noc(-c2ccc3[nH]cc(CCN)c3c2)n1 | 0.13 | 0.0126 | – | – | –
8 | CC(=O)Nc1ccc(Cc2noc(-c3ccc4[nH]cc(CCN)c4c3)n2)cc1 | 0.48 | 0.000501 | > 10 | 6.4 | Relative maximum (Oryctolagus cuniculus [5]): 1; EC50 (Oryctolagus cuniculus [6]): 0.0126 µM
9 | NCCc1c[nH]c2ccc(-c3nc(N)no3)cc12 | -0.72 | 0.0501 | – | – | –
10 | NCCc1c[nH]c2ccc(Cc3nc(Cc4ccccc4)no3)cc12 | 0.42 | 0.0316 | – | – | –
11 | COc1ccccc1Cc1noc(-c2ccc3[nH]cc(CCN)c3c2)n1 | 1.38 | 0.0158 | – | – | –
12 | NCCc1c[nH]c2ccc(Cc3nc(-c4ccccc4)no3)cc12 | – | 0.02 | – | – | –
13 | CN(C)CCc1c[nH]c2ccc(CCc3nc(N)no3)cc12 | – | 0.0126 | 6.31 | 6.7 | EC50 (Oryctolagus cuniculus [6]): 0.2 µM
14 | CN(C)CCc1c[nH]c2ccc(-c3nc(Cc4ccccc4)no3)cc12 | – | 0.00631 | – | – | –
15 | CS(=O)(=O)Nc1ccc(Cc2noc(Cc3ccc4[nH]cc(CCN)c4c3)n2)cc1 | -0.54 | 0.00316 | – | – | –
16 | CN(C)CCc1c[nH]c2ccc(-c3nc(N)no3)cc12 | 0.2 | 0.0794 | – | – | –
17 | Cc1noc(-c2ccc3[nH]cc(CCN)c3c2)n1 | -0.37 | 0.01 | > 10 | 5.8 | Relative maximum (Oryctolagus cuniculus [5]): 1; EC50 (Oryctolagus cuniculus [6]): 0.251 µM
18 | CC(=O)NCc1noc(-c2ccc3[nH]cc(CCN)c3c2)n1 | – | 0.02 | – | – | –
19 | NCCc1c[nH]c2ccc(Cc3nc(N)no3)cc12 | – | 0.02 | > 10 | 6.1 | EC50 (Oryctolagus cuniculus [6]): 0.158 µM
20 | CN(C)CCc1c[nH]c2ccc(Cc3nc(N)ns3)cc12 | – | 0.002 | 2.4 | 6.9 | Relative maximum (Oryctolagus cuniculus [5]): 1.1

Row | Structure (SMILES) | logD [1] | IC50 [2] [µM] | IC50 [3] [µM] | pIC50 [4] | further results
21 | NCCc1c[nH]c2ccc(CCCc3nc(Cc4ccccc4)no3)cc12 | – | 0.00158 | – | – | –
22 | CNC(=O)c1ccc(-c2noc(Cc3ccc4[nH]cc(CCN(C)C)c4c3)n2)cc1 | 1.45 | 0.002 | – | – | –
23 | NCCc1c[nH]c2ccc(-c3nc(C4CC4)no3)cc12 | 0.6 | 0.00794 | > 10 | 5.6 | –
24 | CN(C)CCc1c[nH]c2ccc(CCCc3nc(Cc4ccccc4)no3)cc12 | – | 0.0126 | – | – | –
25 | CN(C)CCc1c[nH]c2ccc(Cc3nc(-c4ccc(NS(C)(=O)=O)cc4)no3)cc12 | – | 0.01 | – | – | –
26 | Cc1cnc(-c2ccc3[nH]cc(CCN(C)C)c3c2)o1 | – | 0.00794 | – | – | –
27 | NCCc1c[nH]c2ccc(CCc3nc(N)no3)cc12 | -1.51 | 0.01 | – | – | –
28 | CC(=O)Nc1ccc(Cc2noc(Cc3ccc4[nH]cc(CCN)c4c3)n2)cc1 | -0.36 | 0.00251 | – | – | –
29 | CN(C)CCc1c[nH]c2ccc(Cc3nc(N)no3)cc12 | – | 0.0251 | 2.51 | 6.4 | –
30 | Cc1noc(Cc2ccc3[nH]cc(CCN(C)C)c3c2)n1 | – | 0.0501 | 3.98 | 5.6 | –
31 | COc1ccc(Cc2noc(-c3ccc4[nH]cc(CCN)c4c3)n2)cc1 | – | 0.000794 | > 10 | 6 | –
32 | CNS(=O)(=O)c1ccc(Cc2noc(-c3ccc4[nH]cc(CCN)c4c3)n2)cc1 | 0.25 | 0.000251 | – | – | Relative maximum (Oryctolagus cuniculus [5]): 0.9; EC50 (Oryctolagus cuniculus [6]): 0.0126 µM
33 | NCCc1c[nH]c2ccc(CCc3nc(Cc4ccccc4)no3)cc12 | – | 0.00501 | > 10 | 6.6 | –
34 | Cc1noc(Cc2ccc3[nH]cc(CCN)c3c2)n1 | -1.7 | 0.0316 | > 10 | 5.5 | –
35 | CN(C)CCc1c[nH]c2ccc(Cc3nc(Cc4ccc(NS(C)(=O)=O)cc4)no3)cc12 | 0.5 | 0.0316 | – | – | –
36 | COc1cccc(Cc2noc(-c3ccc4[nH]cc(CCN)c4c3)n2)c1 | – | 0.00126 | – | – | –
37 | NCCc1c[nH]c2ccc(-c3nc(-c4ccccc4)no3)cc12 | – | 0.0794 | – | – | –
38 | CN(C)CCc1c[nH]c2ccc(CCc3nc(Cc4ccccc4)no3)cc12 | – | 0.0126 | – | – | –
39 | CS(=O)(=O)Nc1ccc(Cc2noc(-c3ccc4[nH]cc(CCN)c4c3)n2)cc1 [L-694247] | 0.25 | 0.000316 | > 10 | 6.5 | Relative maximum (Oryctolagus cuniculus [5]): 1; EC50 (Oryctolagus cuniculus [6]): 0.0158 µM
40 | NCCc1c[nH]c2ccc(O)cc12 [SEROTONIN] | – | 0.01 | – | – | Relative maximum (Oryctolagus cuniculus [7]): 1
